Experimental data from PubChem BioAssay AID2060883 (Molecular Pharmacology Branch, DTP, NCI, 2025).
“And” between values parts separate entries of the source, which are not always exact repeats. Equal values may be shown once.

System: 843782-103-R-J1-PDC complex spheroid viability
Assay: Anticancer human tumor 843782-103-R-J1-PDC patient-derived lung adenocarcinoma cell line growth inhibition [RAS]
Conditions: for viability, T/C: stronger effect = lower value
Method in brief: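 Multi-cell-type spheroids: tumor cells plus HUVEC endothelial cells and mesenchymal stem cells. RAS-pathway inhibitors were combined with targeted agents, each dosed in half-log steps down from clinical Cmax, or from 10 microM when Cmax was unknown.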

[1] = curve of first compound, second compound 0.000949 µM
[2] = curve of first compound, second compound 0.003 µM
[3] = curve of first compound, second compound 0.00949 µM
[4] = curve of first compound, second compound 0.03 µM
[5] = curve of first compound, second compound 0.0949 µM
[6] = curve of first compound, second compound 0.3 µM
[7] = second compound 0.000949 µM, first compound 0.0316 µM
[8] = second compound 0.000949 µM, first compound 0.1 µM
[9] = second compound 0.000949 µM, first compound 0.316 µM
[10] = second compound 0.000949 µM, first compound 1 µM
[11] = second compound 0.003 µM, first compound 0.0316 µM
[12] = second compound 0.003 µM, first compound 0.1 µM
[13] = second compound 0.003 µM, first compound 0.316 µM
[14] = second compound 0.003 µM, first compound 1 µM
[15] = second compound 0.00949 µM, first compound 0.0316 µM
[16] = second compound 0.00949 µM, first compound 0.1 µM
[17] = second compound 0.00949 µM, first compound 0.316 µM
[18] = second compound 0.00949 µM, first compound 1 µM
[19] = second compound 0.03 µM, first compound 0.0316 µM
[20] = second compound 0.03 µM, first compound 0.1 µM
[21] = second compound 0.03 µM, first compound 0.316 µM
[22] = second compound 0.03 µM, first compound 1 µM
[23] = second compound 0.0949 µM, first compound 0.0316 µM
[24] = second compound 0.0949 µM, first compound 0.1 µM
[25] = second compound 0.0949 µM, first compound 0.316 µM
[26] = second compound 0.0949 µM, first compound 1 µM
[27] = second compound 0.3 µM, first compound 0.0316 µM
[28] = second compound 0.3 µM, first compound 0.1 µM
[29] = second compound 0.3 µM, first compound 0.316 µM
[30] = second compound 0.3 µM, first compound 1 µM
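Further: viability read after seven days of compound exposure.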

Q: How did the IC50 [1] turn out when CC(=O)OC12COC1CC(O)C1(C)C(=O)C(O)C3=C(C)C(OC(=O)C(O)C(NC(=O)OC(C)(C)C)c4ccccc4)CC(O)(C(OC(=O)c4ccccc4)C21)C3(C)C (centres undefined) + CCn1c(-c2cc(N3CCN(C)CC3)cnc2C(C)OC)c2c3cc(ccc31)-c1csc(n1)CC(NC(=O)C1CC1C)C(=O)N1CCCC(N1)C(=O)OCC(C)(C)C2 was run?
A: < 31.6 nM

Q: And the IC50 [2]?
A: < 31.6 nM

Q: What about the IC50 [3] of the same molecule?
A: < 31.6 nM

Q: What about the IC50 [4] of the same molecule?
A: < 31.6 nM

Q: What about the IC50 [5] of the same molecule?
A: < 31.6 nM

Q: And the IC50 [6]?
A: < 31.6 nM

Q: What about the viability, T/C [7] of the same molecule?
A: 4.09%

Q: And the viability, T/C [8]?
A: 3.3%

Q: And the viability, T/C [9]?
A: 4.43%

Q: What about the viability, T/C [10] of the same molecule?
A: 4.14%

Q: And the viability, T/C (second compound 0.000949 µM, first compound 3.16 µM)?
A: 4.74%

Q: And the viability, T/C (second compound 0.000949 µM, first compound 10 µM)?
A: 5.86%

Q: And the viability, T/C [11]?
A: 3.09%

Q: And the viability, T/C [12]?
A: 3.12%

Q: What about the viability, T/C [13] of the same molecule?
A: 3.99%

Q: And the viability, T/C [14]?
A: 3.29%

Q: And the viability, T/C (second compound 0.003 µM, first compound 3.16 µM)?
A: 6.91%

Q: And the viability, T/C (second compound 0.003 µM, first compound 10 µM)?
A: 8.55%

Q: What about the viability, T/C [15] of the same molecule?
A: 4.74%

Q: What about the viability, T/C [16] of the same molecule?
A: 4.97%

Q: What about the viability, T/C [17] of the same molecule?
A: 5.9%

Q: And the viability, T/C [18]?
A: 4.93%

Q: What about the viability, T/C (second compound 0.00949 µM, first compound 3.16 µM) of the same molecule?
A: 5.8%

Q: What about the viability, T/C (second compound 0.00949 µM, first compound 10 µM) of the same molecule?
A: 8.1%

Q: And the viability, T/C [19]?
A: 5.08%

Q: And the viability, T/C [20]?
A: 4.74%

Q: And the viability, T/C [21]?
A: 7.03%

Q: What about the viability, T/C [22] of the same molecule?
A: 5.84%

Q: What about the viability, T/C (second compound 0.03 µM, first compound 3.16 µM) of the same molecule?
A: 6.77%

Q: And the viability, T/C (second compound 0.03 µM, first compound 10 µM)?
A: 7.36%

Q: And the viability, T/C [23]?
A: 6.75%

Q: And the viability, T/C [24]?
A: 7.55%

Q: What about the viability, T/C [25] of the same molecule?
A: 6%

Q: And the viability, T/C [26]?
A: 8.09%

Q: And the viability, T/C (second compound 0.0949 µM, first compound 3.16 µM)?
A: 7.2%

Q: What about the viability, T/C (second compound 0.0949 µM, first compound 10 µM) of the same molecule?
A: 7.32%

Q: And the viability, T/C [27]?
A: 6.51%

Q: And the viability, T/C [28]?
A: 6.53%

Q: And the viability, T/C [29]?
A: 8.66%

Q: What about the viability, T/C [30] of the same molecule?
A: 8.26%

Q: And the viability, T/C (second compound 0.3 µM, first compound 3.16 µM)?
A: 9.04%

Q: What about the viability, T/C (second compound 0.3 µM, first compound 10 µM) of the same molecule?
A: 7.8%

Q: How did the viability, T/C (compound 0.0316 µM) turn out when CC(C)NCC(C(=O)N1CCN(c2ncnc3c2C(C)CC3O)CC1)c1ccc(Cl)cc1 (centres undefined) was run?
A: 106% (2×) and 97% and 95.9%

Q: What about the viability, T/C (compound 0.1 µM) of the same molecule?
A: 96.2% [middle of 4 runs]

Q: And the viability, T/C (compound 0.316 µM)?
A: 92.3% [middle of 4 runs]

Q: And the viability, T/C (compound 1 µM)?
A: 62.4% [middle of 4 runs]

Q: What about the viability, T/C (compound 3.16 µM) of the same molecule?
A: 30% [middle of 4 runs]

Q: What about the viability, T/C (compound 10 µM) of the same molecule?
A: 13.7% [middle of 4 runs]

Q: And the IC50 (curve of compound)?
A: 1.54 µM [middle of 4 runs]

Q: Which viability, T/C (compound 0.000949 µM) does the source give for CCc1c2c(nc3ccc(O)cc13)-c1cc3c(c(=O)n1C2)COC(=O)[C@]3(O)CC here?
A: 94.2% [middle of 4 runs]

Q: What about the viability, T/C (compound 0.003 µM) of the same molecule?
A: 26% [middle of 4 runs]

Q: And the viability, T/C (compound 0.00949 µM)?
A: 6.94% [middle of 4 runs]

Q: What about the viability, T/C (compound 0.03 µM) of the same molecule?
A: 3.31% [middle of 4 runs]

Q: And the viability, T/C (compound 0.0949 µM)?
A: 1.33% [middle of 4 runs]

Q: What about the viability, T/C (compound 0.3 µM) of the same molecule?
A: 0.94% [middle of 4 runs]

Q: And the IC50 (curve of compound)?
A: 1.88 nM [middle of 4 runs]

Q: For Nc1ccn(C2OC(CO)C(O)C2(F)F)c(=O)n1 (centres undefined), which viability, T/C (compound 0.00316 µM) is on record?
A: 107% [middle of 4 runs]

Q: And the viability, T/C (compound 0.01 µM)?
A: 101% [middle of 4 runs]

Q: And the viability, T/C (compound 0.1 µM)?
A: 3.52% [middle of 4 runs]

Q: What about the viability, T/C (compound 0.316 µM) of the same molecule?
A: 2.19% [middle of 4 runs]

Q: What about the viability, T/C (compound 1 µM) of the same molecule?
A: 2.92% [middle of 4 runs]

Q: And the IC50 (curve of compound)?
A: 34.1 nM [middle of 4 runs]

Q: What does the source list for C=CC(=O)N1CCN(c2nc(OCC3CCCN3C)nc3c(F)c(-c4nc(N)cc(C)c4C(F)(F)F)c(Cl)cc23)C(C)C1 (centres undefined) + CCn1c(-c2cc(N3CCN(C)CC3)cnc2C(C)OC)c2c3cc(ccc31)-c1csc(n1)CC(NC(=O)C1CC1C)C(=O)N1CCCC(N1)C(=O)OCC(C)(C)C2?
A: IC50 [1]: > 1000 nM; IC50 [2]: > 1000 nM; IC50 [3]: < 3.16 nM; IC50 [4]: < 3.16 nM; IC50 [5]: < 3.16 nM; IC50 [6]: < 3.16 nM; viability, T/C (second compound 0.000949 µM, first compound 0.00316 µM): 64.2%; viability, T/C (second compound 0.000949 µM, first compound 0.01 µM): 64.9%; viability, T/C [7]: 62.9%; viability, T/C [8]: 66.8%; viability, T/C [9]: 71.8%; viability, T/C [10]: 67.1%; viability, T/C (second compound 0.003 µM, first compound 0.00316 µM): 57.2%; viability, T/C (second compound 0.003 µM, first compound 0.01 µM): 56.5%; viability, T/C [11]: 55%; viability, T/C [12]: 55.4%; viability, T/C [13]: 55.2%; viability, T/C [14]: 60.8%; viability, T/C (second compound 0.00949 µM, first compound 0.00316 µM): 33.6%; viability, T/C (second compound 0.00949 µM, first compound 0.01 µM): 38.1%; viability, T/C [15]: 36.3%; viability, T/C [16]: 37.1%; viability, T/C [17]: 37%; viability, T/C [18]: 35.8%; viability, T/C (second compound 0.03 µM, first compound 0.00316 µM): 20.3%; viability, T/C (second compound 0.03 µM, first compound 0.01 µM): 23.1%; viability, T/C [19]: 19.3%; viability, T/C [20]: 23.8%; viability, T/C [21]: 22.7%; viability, T/C [22]: 21.6%; viability, T/C (second compound 0.0949 µM, first compound 0.00316 µM): 15.4%; viability, T/C (second compound 0.0949 µM, first compound 0.01 µM): 13.7%; viability, T/C [23]: 16.6%; viability, T/C [24]: 20%; viability, T/C [25]: 17.4%; viability, T/C [26]: 16.4%; viability, T/C (second compound 0.3 µM, first compound 0.00316 µM): 14.6%; viability, T/C (second compound 0.3 µM, first compound 0.01 µM): 14.5%; viability, T/C [27]: 14.8%; viability, T/C [28]: 14.9%; viability, T/C [29]: 14.5%; viability, T/C [30]: 13.4%
